Molecules are shown by their SMILES.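 Five concentrations, 48 hours, 96-well plates. GI50: concentration for 50% inhibition of growth. The concentration for full growth arrest is given as TGI.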 Where only a bound is given, the exact number is not on record here.

The results in this text go back to PubChem BioAssay (NCI).

Test systems include HCT-116 colon; HOP-92 NSCLC; IGROV1 ovarian; LOX IMVI melanoma; M14 melanoma; OVCAR-5 ovarian; SK-MEL-28 melanoma; SNB-19 CNS; SR leukemia; SW-620 colon.
What all share (experiment): NCI tumour cell line growth inhibition, 48 h

Turning to `O=C1C=C(NCCc2cc(Br)c(O)c(Br)c2)C(=O)c2[nH]cnc21`, the TGI in the test on HCT-116 colon is 43.9 µM; in the test on HOP-92 NSCLC, 82.3 µM; in the test with IGROV1 ovarian it was more than 100 µM; in the test with LOX IMVI melanoma, more than 100 µM; in the test with M14 melanoma, 57.7 µM; with OVCAR-5 ovarian, 67.2 µM. Further, the TGI in the test with SK-MEL-28 melanoma, in the test on SNB-19 CNS, in the test with SR leukemia and in the test on SW-620 colon was more than 100 µM each time.

As to `COc1cccc(/C=N/n2c(Cc3ccc(Cl)cc3)n[nH]c2=O)c1`, the TGI in the test with HCT-116 colon is more than 100 µM; with HOP-92 NSCLC, 52.1 µM; in the test on IGROV1 ovarian, more than 100 µM; in the test with LOX IMVI melanoma it was more than 100 µM; in the test with M14 melanoma, more than 100 µM; in the test with OVCAR-5 ovarian it was more than 100 µM. In addition, the TGI with SK-MEL-28 melanoma was more than 100 µM; in the test on SNB-19 CNS, 67.8 µM; with SR leukemia, more than 100 µM; with SW-620 colon it was more than 100 µM.

Turning to `Cc1nc2ccccc2cc1C[N+]12CN3CN(CN(C3)C1)C2`, the TGI in the test with HCT-116 colon is 33.2 µM; in the test on HOP-92 NSCLC, more than 100 µM; with IGROV1 ovarian, more than 100 µM; with LOX IMVI melanoma, 32.8 µM; with M14 melanoma, 39.1 µM; in the test on OVCAR-5 ovarian, 57.8 µM. Besides, the TGI in the test on SK-MEL-28 melanoma was 45.1 µM; in the test with SNB-19 CNS it was 56.5 µM; in the test on SR leukemia it was more than 100 µM; in the test with SW-620 colon, more than 100 µM.

On to `CCc1cc2c(oc3c4ccccc4ccc23)c(=O)[nH]1`, for which the TGI with HCT-116 colon, with HOP-92 NSCLC, with IGROV1 ovarian, with LOX IMVI melanoma, in the test on M14 melanoma and with OVCAR-5 ovarian was more than 10 µM throughout. The TGI in the test on SNB-19 CNS, in the test with SR leukemia and in the test on SW-620 colon was more than 10 µM throughout.

In the case of `Cc1cnc2[nH]c(-c3cccc(Cl)c3)cc(=O)c2c1`, the TGI was more than 100 µM in the test with HOP-92 NSCLC; more than 100 µM in the test on IGROV1 ovarian; 11.6 µM in the test on LOX IMVI melanoma; more than 100 µM with M14 melanoma; more than 100 µM in the test with OVCAR-5 ovarian; more than 100 µM in the test with SK-MEL-28 melanoma. For the same molecule, the TGI in the test with SNB-19 CNS was 41.3 µM; in the test on SR leukemia, more than 100 µM; in the test with SW-620 colon it was more than 100 µM.

In the case of `O=[N+]([O-])c1cc(Cl)ccc1S(=O)(=O)c1cc(Cl)cc2c1NCCC2`, the TGI in the test on HCT-116 colon, in the test with HOP-92 NSCLC, in the test with IGROV1 ovarian, in the test on LOX IMVI melanoma, in the test with M14 melanoma and in the test on OVCAR-5 ovarian was more than 100 µM each time. Besides, the TGI in the test with SK-MEL-28 melanoma, in the test with SNB-19 CNS, in the test on SR leukemia and in the test on SW-620 colon was more than 100 µM in each case.

Consider `Cc1nc(N)nc(N)c1N1CCN(Cc2ccccc2)CC1`, for which the TGI with HCT-116 colon, in the test on HOP-92 NSCLC, in the test on IGROV1 ovarian, in the test with LOX IMVI melanoma, in the test on M14 melanoma and in the test with OVCAR-5 ovarian was more than 100 µM throughout. Further, the TGI in the test on SK-MEL-28 melanoma, with SNB-19 CNS, in the test with SR leukemia and with SW-620 colon was more than 100 µM each time.

For `Nc1ccc(-c2nc3cc(F)ccc3s2)cc1`, the TGI in the test on HCT-116 colon is more than 100 µM; with HOP-92 NSCLC, more than 93.1 µM; in the test on IGROV1 ovarian, more than 77.9 µM; in the test with LOX IMVI melanoma, more than 100 µM; in the test on M14 melanoma it was more than 100 µM; in the test on OVCAR-5 ovarian, more than 92.8 µM. Further, the TGI with SK-MEL-28 melanoma, in the test with SNB-19 CNS, with SR leukemia and in the test on SW-620 colon was more than 100 µM in each case.

As for `COc1ccc(/C=C/C(c2cc(OC)c(OC)c(OC)c2)n2cncn2)cc1O` (centres undefined), the GI50 in the test with HCT-116 colon was 0.041 µM; in the test with HOP-92 NSCLC, 67 µM; in the test with IGROV1 ovarian, 5.83 µM; with LOX IMVI melanoma, 0.0511 µM; in the test with M14 melanoma, 0.0287 µM; in the test on OVCAR-5 ovarian it was 4.48 µM. Besides, the GI50 is 3.62 µM in the test with SK-MEL-28 melanoma, 0.0248 µM in the test with SR leukemia and 0.0394 µM with SW-620 colon. The TGI in the test on HCT-116 colon is more than 100 µM; in the test with HOP-92 NSCLC, more than 100 µM; in the test with IGROV1 ovarian, more than 100 µM; in the test with LOX IMVI melanoma, more than 100 µM; in the test on M14 melanoma, 5.12 µM; in the test on OVCAR-5 ovarian, 72.6 µM. The TGI in the test with SK-MEL-28 melanoma, with SR leukemia and in the test with SW-620 colon was more than 100 µM each time.

On to `CC(CN(C)C)C(=O)/C=C/c1ccc(Cl)c(Cl)c1` (centres undefined), for which the TGI amounted to 2.99 µM in the test with HCT-116 colon; 3.48 µM with HOP-92 NSCLC; 3.73 µM in the test with IGROV1 ovarian; 2.99 µM in the test on LOX IMVI melanoma; 5.13 µM in the test with M14 melanoma; 4.07 µM in the test with OVCAR-5 ovarian. Further, the TGI in the test with SK-MEL-28 melanoma is 16.5 µM; in the test on SNB-19 CNS, 19.7 µM; with SR leukemia it was 6.25 µM; in the test on SW-620 colon, 8.42 µM.

With `COc1cc([C@@H]2c3cc4c(cc3[C@@H](Nc3ccc(NC(=O)c5cc(NC(=O)c6cc([N+](=O)[O-])cn6C)cn5C)cc3)[C@H]3COC(=O)[C@H]23)OCO4)cc(OC)c1O`, the TGI with HCT-116 colon is 33.3 µM; in the test on HOP-92 NSCLC, more than 39.2 µM; in the test with IGROV1 ovarian, more than 39 µM; in the test on LOX IMVI melanoma it was more than 44.1 µM; with M14 melanoma, 47.7 µM; in the test with OVCAR-5 ovarian, 99.6 µM. Also, the results for the TGI with SNB-19 CNS, in the test with SR leukemia and in the test on SW-620 colon were more than 55.1 µM, more than 100 µM and more than 62.5 µM, respectively.

With `C/C(=N\NC(=O)N/N=C(\C)c1ccccn1)c1ccccn1`, the TGI with HCT-116 colon, in the test with HOP-92 NSCLC, in the test with IGROV1 ovarian, with LOX IMVI melanoma, with M14 melanoma and with OVCAR-5 ovarian was more than 100 µM in each case. Further, the TGI in the test with SK-MEL-28 melanoma, with SNB-19 CNS, with SR leukemia and with SW-620 colon was more than 100 µM in each case.

With `O=C1C(CN2CCCC2)CCCC1CN1CCCC1` (centres undefined), the TGI in the test on HCT-116 colon turned out to be 3.28 µM; in the test with IGROV1 ovarian, 32.4 µM; in the test with LOX IMVI melanoma it was 6.26 µM; in the test with M14 melanoma, 3.3 µM; in the test with OVCAR-5 ovarian, 13.2 µM; in the test on SK-MEL-28 melanoma it was 8.94 µM. In addition, the TGI in the test on SNB-19 CNS is more than 100 µM; in the test with SR leukemia, 5.66 µM; in the test on SW-620 colon, 0.32 µM.
